Here are results for seven compounds from patent US6538112B2, “Hybridomas and monoclonal antibodies for an anticoagulant test” (Merck & Co., Inc., priority 1997, dated 2003).

In assay [1] the target is T1, GPIIb/IIIa activation state on gel filtered platelets (Homo sapiens, UniProt P05106+P08514).
T1 construct: Gel filtered platelets (GFP) were prepared from blood anticoagulated with 13 mM trisodium citrate; endogenous in cells; host or cells: gel filtered platelets from citrated blood
Kind of assay: PAC-1 binding to gel filtered platelets. The note with it: PGE1, PGI2 and apyrase prior to antibody or agonist. It counts as cell-based. How it is done:
PAC-1 (Shattil et al. (1985) J. Biol. Chem. 260, 11107-11114) binding studies were done using 20 μg/mL FITC conjugated PAC-1 (University of Pennsylvania Cell Center (Philadelphia, Pa.)) diluted in PBS. 25 μL of resting 1×10^8 GFP/mL, in flow cytometry buffer containing 1 mM CaCl, was combined with 100 nM of antibody and FITC conjugated PAC-1 to a final volume of 100 μL. The sample was incubated for 1 hour at room temperature. Following incubation the cells were diluted to 300 μL in flow cytometry buffer immediately before flow cytometry analysis. Contol PAC-1 binding to activated platelets was tested by first activating the receptors with either 1 nM thrombin or 20 μM ADP. Some samples were pretreated with activation inhibitors 100 μM PGE1, 20 μg/ml apyrase (Sigma Chemical Company (St. Louis, Mo.)) and 10 μM PGI2 (BioMol (Plymouth Meeting, Pa.)) prior to antibody addition or platelet activation with ADP or thrombin.

The test system of assay [2] is gel filtered platelets. Kind of assay: Platelet aggregation (lumiaggregometry). It counts as cell-based. On the procedure:
Aggregation by platelets stir red (1000 rpm) at 37° C. was assayed using the Chrono-Log Lumiaggregometer. Antibody mAb3-758, mAb10-758 or mAb15-758 were added to 250 μL of 2×10^8 GFP/mL, in platelet buffer containing 2 mM CaCl, in the absence or presence of 20 μM ADP followed by the addition of 200 μg/mL fibrinogen. In some experiments PGE1, apyrase and PGI2 were included as activation inhibitors. Changes in light transmittance were recorded and transferred to Microsoft Excel for data plotting. For the determination of EC50 and IC50 of mAb3-758 and mAb10-758, respectively, control aggregations Pusing ADP alone were performed with each set of concentrations tested.

The target in assay [3] is T2, GPIIb/IIIa on gel filtered platelets (Homo sapiens, UniProt P05106+P08514).
T2 construct: Gel filtered platelets (GFP) were prepared from blood anticoagulated with 13 mM trisodium citrate; endogenous in cells; host or cells: gel filtered platelets from citrated blood
The assay is described as follows: Flow cytometry binding assay on platelets: effect of receptor occupancy or ADP activation on antibody binding. The note with it: GFP pretreated with 1 μM ligand, 100 nM antibody. How it is done:
The platelet bound antibodies were separated from free antibodies by centrifugation in the presence of 100 μM PGE1 followed by resuspension in flow cytometry buffer containing 100 nM of FITC conjugated goat anti-mouse antibody, incubated for 1 hour at room temperature and analyzed using flow cytometry. The light scatter and fluorescence intensity of 20000 cells was collected using logarithmic gain.

For assay [4], the target named is T3, purified human platelet αIIbβ3 (Homo sapiens, UniProt P05106+P08514).
T3 construct: detergent solubilized platelet lysates were passed over a Concanavalin A-Sepharose 4B column; from tissue; host or cells: human platelets (given as outdated human plasma; platelet lysates)
The assay is described as follows: Disassociation constants of GP IIb/IIIa antagonists on purified human αIIbβ3. Type of assay: binding. On the procedure: GPIIb/IIIa was purified from outdated human plasma using a slight modification of the procedure described by Kouns et al. (Kouns et al. (1992) J. Biol. Chem. 267, 18844-18851). Briefly, detergent solubilized platelet lysates were passed over a Concanavalin A-Sepharose 4B column (Sigma Chemicals, St. Louis, Mo.), followed by elution with methyl-α-D mannopyranozide (Sigma Chemical, St. Louis, Mo.). […] All fractions were analyzed for purity by SDS-PAGE electrophoresis.

Where [5] appears, read: activated form of purified human αIIbβ3, read-out: Activated Form KD-A.
The mark [6] stands for this setting: unactivated form of purified human αIIbβ3, read-out: Unactivated Form KD-B.
The mark [7] stands for this setting: Activated Form KD-A, activated form of purified human αIIbβ3.
Where [8] appears, read: Unactivated Form KD-B, unactivated form of purified human αIIbβ3.

Entries after “also recorded” stand apart in the source; their conditions may differ. Where a name gives a salt, the structure may show the parent alone. Read-outs that look alike come from different tables or passages of the source. Bridge positions count the residues as written; N and C are the ends. Ends that are not written are not given here. Peptide text beside a SMILES is read from it. * marks the point of attachment. Benzoyl(4-I) = O=C(c1ccc(I)cc1)* Where only a bound is given, the exact number is not on record here.

T3 sequence (P08514 32-887 limits assumed): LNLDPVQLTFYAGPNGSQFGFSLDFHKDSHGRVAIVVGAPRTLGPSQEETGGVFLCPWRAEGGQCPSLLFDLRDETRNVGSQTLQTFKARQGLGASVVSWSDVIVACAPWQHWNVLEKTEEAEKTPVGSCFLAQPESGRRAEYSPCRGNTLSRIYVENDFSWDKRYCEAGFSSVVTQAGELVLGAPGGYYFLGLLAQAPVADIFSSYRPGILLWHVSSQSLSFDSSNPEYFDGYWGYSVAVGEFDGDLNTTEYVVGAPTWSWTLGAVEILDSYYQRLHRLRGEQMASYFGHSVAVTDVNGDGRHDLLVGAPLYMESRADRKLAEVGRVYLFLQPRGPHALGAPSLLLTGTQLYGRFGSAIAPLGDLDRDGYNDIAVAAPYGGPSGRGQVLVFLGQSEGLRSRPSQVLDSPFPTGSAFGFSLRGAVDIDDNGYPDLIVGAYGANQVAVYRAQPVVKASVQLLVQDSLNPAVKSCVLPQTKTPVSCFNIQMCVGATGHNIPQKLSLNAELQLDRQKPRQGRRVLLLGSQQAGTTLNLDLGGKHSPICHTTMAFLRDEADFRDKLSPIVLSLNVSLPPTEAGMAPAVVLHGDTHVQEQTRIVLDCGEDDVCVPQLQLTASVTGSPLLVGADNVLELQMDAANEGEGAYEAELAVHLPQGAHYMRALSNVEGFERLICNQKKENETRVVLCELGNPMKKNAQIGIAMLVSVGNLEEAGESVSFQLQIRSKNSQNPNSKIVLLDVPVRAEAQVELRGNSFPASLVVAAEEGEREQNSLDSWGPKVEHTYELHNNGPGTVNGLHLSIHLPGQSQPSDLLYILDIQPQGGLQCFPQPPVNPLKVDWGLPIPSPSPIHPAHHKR
T3 sequence (P08514 891-1039 partner limits assumed): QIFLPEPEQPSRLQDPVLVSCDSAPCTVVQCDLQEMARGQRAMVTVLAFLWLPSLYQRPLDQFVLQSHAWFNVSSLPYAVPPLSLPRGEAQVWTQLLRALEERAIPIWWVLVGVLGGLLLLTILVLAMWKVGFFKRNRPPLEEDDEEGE
T3 sequence (P05106 27-788): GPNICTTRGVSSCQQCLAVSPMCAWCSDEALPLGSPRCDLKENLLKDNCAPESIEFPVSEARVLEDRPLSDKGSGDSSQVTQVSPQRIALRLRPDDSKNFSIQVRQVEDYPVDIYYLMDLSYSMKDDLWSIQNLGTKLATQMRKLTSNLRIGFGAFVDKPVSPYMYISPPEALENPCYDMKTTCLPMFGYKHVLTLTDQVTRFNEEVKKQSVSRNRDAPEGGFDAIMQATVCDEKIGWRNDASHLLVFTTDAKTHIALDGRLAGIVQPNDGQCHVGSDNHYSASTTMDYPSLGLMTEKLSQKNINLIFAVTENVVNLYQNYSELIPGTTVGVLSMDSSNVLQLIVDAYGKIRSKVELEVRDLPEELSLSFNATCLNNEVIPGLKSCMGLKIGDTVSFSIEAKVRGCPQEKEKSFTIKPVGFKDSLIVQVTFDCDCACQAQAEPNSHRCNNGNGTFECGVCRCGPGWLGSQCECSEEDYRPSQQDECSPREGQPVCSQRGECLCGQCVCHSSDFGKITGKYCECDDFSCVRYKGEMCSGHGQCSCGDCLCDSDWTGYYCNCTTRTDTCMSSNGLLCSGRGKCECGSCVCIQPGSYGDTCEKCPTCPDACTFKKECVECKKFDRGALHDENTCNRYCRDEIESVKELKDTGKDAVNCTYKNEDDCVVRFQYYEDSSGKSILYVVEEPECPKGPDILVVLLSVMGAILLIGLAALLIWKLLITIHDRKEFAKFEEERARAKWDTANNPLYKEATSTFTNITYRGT
T2 sequence (P08514 32-887 limits assumed): as the sequence (P08514 32-887 limits assumed) above
T2 sequence (P08514 891-1039 partner limits assumed): as the sequence (P08514 891-1039 partner limits assumed) above
T2 sequence (P05106 27-788): as the sequence (P05106 27-788) above
T1 sequence (P08514 32-887 limits assumed): as the sequence (P08514 32-887 limits assumed) above
T1 sequence (P08514 891-1039 partner limits assumed): as the sequence (P08514 891-1039 partner limits assumed) above
T1 sequence (P05106 27-788): as the sequence (P05106 27-788) above

As for `Nc1ncnc2c1ncn2[C@@H]1O[C@H](COP(=O)(O)OP(=O)(O)O)[C@@H](O)[C@H]1O` [ADP], the “PAC-1 binding after pretreatment with activation inhibitors” value in assay [1] is “completely blocked”. The “platelet aggregation response stimulated by the substance alone” value in assay [2] (100 nM mAb10-758, 1 μM mAb15-758, 20 μM ADP, control platelets) came to 69.6%. Also, in assay [2] (10 μM of antagonist), the “aggregation response following incubation with fibrinogen receptor antagonist” value came out at 2.5%. Besides, the concentration giving a half-maximal response (EC50) in assay [2] (GFP with fibrinogen, read-out: EC50 ADP stimulated platelet aggregation) is 1700 nM. The “aggregation response of platelets pretreated with activation inhibitors” value in assay [2] (mixture of PGE1, PGI2 and apyrase, 100 nM mAb10-758, 1 μM mAb15-758) is listed as 3.3%. Further, in assay [2] (no antagonist), the “aggregation response in control platelets of the antagonist experiment” value amounted to 69.6%.
For `N=C(N)c1ccc(C(=O)NC(Cc2ccc(O)cc2)C(=O)N2CCC(OCC(=O)O)CC2)cc1` (stereo not shown) [RO-44-9883, {1-[2-(4-carbamimidoyl-benzoylamino)3-(4-hydroxy-phenyl)propionyl]-piperidin-4-yloxy}-acetic acid], the “induction of the neo-epitope recognized by anti-LIBS mAb10-758 and mAb15-758” value in assay [3] is given as “induced; also recorded: induce the neo-epitope”. Besides, the equilibrium dissociation constant (Kd) in assay [4] (setting [5]) was found to be 0.96 nM; in assay [4] (setting [6]) it was 6.3 nM.
For `O=C(O)COc1ccc2c(c1)CN(C(=O)c1ccc(N3CCNCC3)cc1)CC2` [compound A, 4-(N-piperazine)benzoyl-(N-1,2,3,4-tetrahydroisoquinoline-7-yl)oxy-acetic acid], the dissociation constant Kd in assay [4] (setting [5]) and in assay [4] (setting [6]) was > 100000 nM in each case.
Regarding `N=C(N)NCCC[C@@H]1NC(=O)[C@@H]2CCCN2C(=O)[C@H](CC(N)=O)NC(=O)[C@@H](NC(=O)c2ccc(I)cc2)CSSC[C@@H](C(=O)O)NC(=O)[C@H](CC(=O)O)NC(=O)CNC1=O` [compound B, cyclo-4-I-benzoyl-(Cys-Asn-Pro-Arg-Gly-Asp-Cys)-OH HOAc salt] ({Benzoyl(4-I)}-CNPRGDC-OH; disulfide 1-7 (inferred)), the values for the dissociation constant (Kd) in assay [4] (setting [7]) and in assay [4] (setting [8]) were 1.5 nM and 60 nM, respectively.
Take `C[C@H](CC(=O)O)NC(=O)CN1CCC[C@@H](CCC2CCNCC2)C1=O` [compound C, N-[3(R)-[2-(Piperidin-4-yl)ethyl]-2-piperidon-1-yl] acetyl-3(R)-methyl-β-alanine]: the values for the Kd in assay [4] (setting [5]) and in assay [4] (setting [6]) were 4.5 nM and 610 nM, respectively.
For the compound `O=C(NC[C@H](NS(=O)(=O)c1cccnc1)C(=O)O)c1cc2cc(CCC3CCNCC3)sc2s1` [compound D, 2-(S)-(3-pyridylsulfonyl)amino-3-N-[5-[2-(4-piperidinyl)ethyl]-thienothiophene-2-carboxamide]propionic acid], the equilibrium dissociation constant (Kd) in assay [4] (setting [5]) was determined as 0.03 nM; in assay [4] (setting [6]) it was 2.4 nM.
In the case of “ECESGPCCRNCKFLKEGTICKRARGDDMDDYCNGKTCDCPRNPHKGPAT (disulfide 2-11, 7-32, 8-37, 20-39 (inferred)) [echistatin]”, the equilibrium dissociation constant (Kd) in assay [4] (setting [7]) came out at 4.6 nM; in assay [4] (setting [8]) it was 4.9 nM.
